Data on four compounds can be found in US11591297B2, “Compound having PD-L1 expression-suppressing action” (TOHOKU UNIVERSITY, priority 2019, dated 2023).

For the assay, the system named is human PD-L1 promoter. Kind of assay: Inhibitory effect of luciferase expression under control of PD-L1 promoter (A549/PD-L1luc luciferase assay, corrected by total protein). In kind it is cell-based. Conditions: Homo sapiens; A549/PD-L1luc cells, 48±4 hours, RLU corrected by total protein amount; read-out: IC50 (50% inhibition value of luciferase expression). From the text:
A reporter vector, pPD-L1luc obtained by the insertion of a human PD-L1 promoter sequence (−2097 to 51) into the multiple cloning site of pGL-3 vector basic (Promega) expresses luciferase under the control of PD-L1 promoter when transfected into animal cells. The pPD-L1luc was transfected into a human non-small cell lung cancer-derived cell line A549 together with pPUR (Clontech) that expresses a puromycin resistance gene (puromycin-N-acetyl-transferase gene), and then cells expressing luciferase which could grow in a puromycin-supplemented medium were selected. The selected cells were named “A549/PD-L1luc cells” and used for luciferase assay as described below.
A test compound was added into a culture liquid containing A549/PD-L1luc cells to observe the influence of the test compound on the amount of luciferase expressed in the cells. Here, it can be considered that when the test compound has a cell cytotoxicity or cell growth inhibitory effect, the total expression level of luciferase is recued due to a reduction in the number of living cells that depends on the concentration of the test compound, and thus the inhibitory effect of luciferase expression under the control of PD-L1 promoter of the test compound cannot be properly evaluated.
A549/PD-L1luc cells were suspended in DMEM containing 10% fetal calf serum (FCS) and 1% penicillin/streptomycin (P/S) (hereinafter, referred to as “DMEM medium”) at 3×10^4 cells/mL to obtain a cell suspension, and the cell suspension was dispensed into each well of a 96-well plate in an amount of 100 μL. In order to perform the assay in triplicate, 3 wells were prepared for control group, and 3 wells were prepared for test compound-treated groups at each concentration. After the dispensation, the 96-well plate was incubated in a CO2 incubator (at 37° C. and 5% CO2) for 24±4 hours.
Each compound of Examples 1 to 6 and Comparative Example 1 was dissolved in dimethylsulfoxide (DMSO) to obtain 50 mmol/L of a compound solution, and the compound solution was stored at −80° C. The compound solution was diluted with DMSO in 2-fold dilution series (usually, in the range of 0.04 mmol/L to 10 mmol/L) to prepare test compound solutions whose concentration varied by two fold for luciferase assay.
Each solution of only DMSO (control) and the diluted test compound (sample) was dispensed into each well containing the cell suspension in an amount of 0.5 μL (200-fold dilution). The solution in each well was mixed with a vortex mixer, and then the 96-well plate was incubated in a CO2 incubator (at 37° C. and 5% CO2) for 48±4 hours. Luciferase Assay Substrate (hereinafter, referred to as “LAS”) supplied in Luciferase Assay Systems (Promega: Cat #E1500) was dissolved in Luciferase Assay Buffer (LAB) to prepare a luciferase reagent. 5× Cell Culture Lysis Reagent (hereinafter, referred to as “CCLR”) was diluted by 5 times with water to prepare 1×CCLR.
After the incubation for 48±4 hours, the medium in each well was completely removed, and 1×CCLR was dispensed into each well in an amount of 50 μL. The plate was allowed to stand at room temperature for 30 minutes, and then 1×CCLR in each well was used as an assay sample for luciferase and total protein amount. The luciferase reagent (100 μL) was placed in a tube for chemiluminescence measurement assay, and the assay sample (20 μL) was added into the tube and mixed with the luciferase reagent to measure chemiluminescence (Relative Luminescence Intensity: RLU) using GloMax 20/20 (Promega).
The above-mentioned assay sample (10 μL) was diluted by 10 times with water (90 μL). Each calibration curve sample was prepared by diluting the BSA solution with water as described in Table 1.
BCA reagent A and BCA reagent B (50:1) supplied in a kit for protein assay were mixed to prepare Working Reagent. Each of the calibration curve samples (Vials I to VI) and the 10-fold diluted assay samples was dispensed into each well of a 96-well plate in an amount of 25 μL, respectively. […]
The term IC50 denotes the concentration needed to halve the response being measured. For `O=C(Nc1ccc(Oc2ccc(C(F)(F)F)cc2)cc1)C1CCCN(C(=O)c2ccc([N+](=O)[O-])cc2)C1` (stereo not shown) [Example 2, 1-(4-Nitrobenzoyl)-N-(4-(4-(trifluoromethyl)phenoxy)phenyl) piperidine-3-carboxamide], the IC50 amounted to 1300 nM.

As to `COc1cc(C(=O)N2CCCC(C(=O)Nc3ccc(Oc4ccc(C(F)(F)F)cc4)cc3)C2)ccc1O` (stereo not shown) [Example 3, 1-(4-Hydroxy-3-methoxybenzoyl)-N-(4-(4-(trifluoromethyl)phenoxy)phenyl)piperidine-3-carboxamide], the IC50 stood at 610 nM.

In the case of `O=C(Nc1ccc(Oc2ccc(S(F)(F)(F)(F)F)cc2)cc1)C1CCCN(C(=O)c2ccc([N+](=O)[O-])cc2)C1` (stereo not shown) [Example 5, 1-(4-Nitrobenzoyl)-N-(4-(4-(pentafluorosulfanyl)phenoxy)phenyl)piperidine-3-carboxamide], the IC50 was determined as 620 nM.

For `COc1cc(C(=O)N2CCCC(C(=O)Nc3ccc(Oc4ccc(S(F)(F)(F)(F)F)cc4)cc3)C2)ccc1O` (stereo not shown) [Example 6, 1-(4-Hydroxy-3-methoxybenzoyl)-N-(4-(4-(pentafluorosulfanyl)phenoxy)phenyl)piperidine-3-carboxamide], the IC50 came to 610 nM.
